# Laboratory results as given in US20230117205A1, “B7-H4 ANTIBODY-DRUG CONJUGATES FOR THE TREATMENT OF CANCER” (SEAGEN INC., priority 2021, published 2023).
# Assays:
# [1] = system: TNBC PDX models; experiment: TNBC patient-derived xenograft models; assay type: in vivo, mice; details: 3 mg/kg q7dx3; for % TGI: vs untreated
# Procedure: Tumor size and body weight were measured twice weekly, and the study was terminated when tumors in the control group reached 1500 mm^3 or up to Day 28, whichever occurred first, or maximum up to Day 60.
# Specifically, stock mice were bilaterally implanted with fragments from one of the Champions TumorGraft® models representing human triple negative breast cancer. After the tumors reached 1000-1500 mm^3, they were harvested, and the tumor fragments were implanted subcutaneously (s.c.) in the left flank of the female study mice. Each animal was implanted with a specific passage lot and documented. Tumor growth was monitored twice a week using digital calipers, and the tumor volume (TV) was calculated using the formula (0.52×[length×width^2]). When the TV reached approximately 150-300 mm^3, animals were matched by tumor size and assigned into control (untreated) or treatment groups (n=1-3 animals/group). Each animal in the treatment groups was dosed with 10 mg/kg hIVIG (Grifolds), followed by 3 mg/kg of ADC every seven days for three total doses (q7dx3). Tumor size and body weight were measured twice weekly, and the study was terminated when tumors in the control group reached 1500 mm^3 or up to Day 28, whichever occurred first, or maximum up to Day 60.
# Inhibition of tumor growth was determined by calculating the percent TGI on the day at which animals in the control group were terminated (100%×[1−(final MTV−initial MTV of a treated group)/(final MTV−initial MTV of the control group)]). Treatment started on Day 0.
# [2] = system: SKBR3; experiment: In vitro cytotoxicity, 96-hour 3D spheroid, CellTiter-Glo; assay type: cell-based, human
# Procedure: (§1) The cytotoxicity was evaluated when cells were grown in 3D spheroid (round bottom, ultra-low attachment plates) conditions.
# (§2) Cancer cell lines expressing B7-H4 (SKBR3, MX-1, and MDA-MB-468) as well as a non-B7-H4-expressing cell line (MDA-MB-231) were thawed from cryovials stored at […] into complete growth media and allowed to grow and recover from thaw at 37° C. and 5% CO2 until cell viability determined by Vi-CELL XR (Beckman Coulter, Indianapolis, Ind.) were above 90%. Cells were then counted and plated at 2000, 2200, 2200, and 2200 cells/well respectively. Cells were plated in 150 μL complete growth media in round bottom, black walled, ultra-low attachment, 96-well plates (Corning 4520). Cell plates were placed at 37° C. and 5% CO2 overnight to allow cells to adhere. ADCs were thawed and 4×8-point serial dilutions were prepared (final dose range 1000-0.061 ng/mL) in RPMI 1640+20% FBS. Fifty μL of each dilution were then added to each cell plate in triplicate. Cells were then left to incubate at 37° C. and 5% CO2 for 96 hours. Cell plates were then removed from the incubator and allowed to cool to room temperature for 30 minutes. CellTiter-Glo® luminescent assay (Promega Corporation, Madison, Wis.) was prepared according to Promega's protocol. One hundred uL CellTiter-Glo® were added to assay plates using a Formulatrix Tempest liquid handler (Formulatrix, Inc.) and plates were heat sealed using an ALPS300 automated microplate heat sealer (Thermo Scientific) and protected from light for 30 minutes at room temperature. The luminescence of each plate was then determined using an EnVision Multilabel plate reader (Perkin Elmer, Waltham, Mass.). […] One hundred uL of lysed spheroid suspension was then transferred to a black walled, flat bottom 96 well plate and read on the EnVision Multilabel plate reader (Perkin Elmer, Waltham, Mass.). Raw data were then analyzed in Graphpad Prism (San Diego, Calif.) using a non-linear, 4-parameter curve fit model (Y=Bottom+[Top-Bottom]/[1+10^[[Log EC50-X]×HillSlope]]). […]
# [3] = system: MDA-MB-468; experiment: as above; assay type: cell-based, human
# Procedure: as §1, §2
# [4] = system: MDA-MB-231; experiment: as above; assay type: cell-based, human; details: MDA-MB-231 (non-B7-H4-expressing)
# Procedure: as §1, §2
substance,measurement,setting,value
SGN-B7H4V: ADC of fully human IgG1 anti-B7-H4 mAb conjugated to monomethyl auristatin E (MMAE) via a protease-cleavable valine-citrulline linker (vedotin),PDX models with tumor regression or tumor growth delay (e.g. TGI>50%),[1]; TNBC,9/11
same,% TGI,"[1]; TNBC_1, Day 13",111%
same,% TGI,"[1]; TNBC_2, Day 7",86%
same,% TGI,"[1]; TNBC_3, Day 20",71%
same,% TGI,"[1]; TNBC_4, Day 20",55%
same,% TGI,"[1]; TNBC_5, Day 9",106%
same,% TGI,"[1]; TNBC_6, Day 20",62%
same,% TGI,"[1]; TNBC_7, Day 20",25%
same,% TGI,"[1]; TNBC_8, Day 17",67%
same,% TGI,"[1]; TNBC_9, Day 22",26%
same,% TGI,"[1]; TNBC_10, Day 27",100%
same,% TGI,"[1]; TNBC_11, Day 52",109%
same,×50,[2],4 ng/mL
same,×50,[3],105 ng/mL
same,×50,[4],>1000 ng/mL
